Test results taken from patent publication US20050209157A1, “Short bioactive peptides and methods for their use” (priority 2001, published 2005).
Converted amounts (≈) assume the structure as drawn. Where two headings read alike, the source gives them in different places. No end group written: not given here.

Legend:
in vitro [1] = settings: human, WI38 normal lung fibroblast cells
in vitro [2] = type: cell-based, human; settings: human, human red blood cells
Procedure: This hemolytic assay is based upon that presented in Journal of Peptide Research 53: 82-90 (1999). […] All procedures were performed according to safety protocols pertaining to the handling and disposal of human body fluids.
Red blood cells (RBCs) were washed three times with PBS (35 mM phosphate buffer 0.15 M NaCl, pH 7.0). RBCs suspended in PBS (0.4% (v/v); about 10 ml per 15 peptides) were prepared. Suspensions (100 μl) were aliquoted to each sample and control tube. Serially diluted peptide solutions (100 μl) were pipetted into the sample tubes. Negative control tubes contained 100 μl PBS; positive control tubes contained 100 μl 1% Triton-X100 detergent. All tubes were incubated for 1 hour at 37° C. The tubes were removed from the incubator and centrifuged at 1000 g for 5 minutes. Supernatant (100 μl) was pipetted to a 96-well polyvinyl chloride plate. The absorbance at 414 nm (A414) was measured, and used to calculate the percent hemolysis according to the following formula. [formula]

MCF7 = assay: Anti-cancer assay, MTT, LD50; type: cell-based; settings: MCF7 breast adenocarcinoma line, MTT, 24 hours with peptide
From the text: (§1) Numbers are LD50 values (μg/mL).

WI38 = settings: MTT, 24 hours with peptide; for WI38 LD50: normal fibroblast line
SW480 = assay: Anti-cancer assay, MTT, LD50; type: cell-based; settings: SW480 colon adenocarcinoma line, 24 hours with peptide
From the text: as §1

PC3 = assay: Anti-cancer assay, MTT, LD50; type: cell-based; settings: 24 hours with peptide, prostate adenocarcinoma
From the text: as §1

H1299 = assay: Anti-cancer assay, MTT, LD50; type: cell-based; settings: 24 hours with peptide, lung large cell carcinoma
From the text: as §1

BMKC = assay: Anti-cancer assay, MTT, LD50; type: cell-based; settings: BMKC cloned melanoma line, 24 hours with peptide
From the text: as §1

HeLaS3 = assay: Anti-cancer assay, MTT, LD50; type: cell-based; settings: 24 hours with peptide, cervical carcinoma
From the text: as §1

[3] = LD50 WI38, WI38 normal lung fibroblast line, MTT, 24 hours with peptide
[4] = pH 7, hemolytic assay, concentration at 50% hemolysis, 1 hour at 37° C., read-out: LD50
[5] = WI-38 LD50, Table 26, valine substitution
[6] = pH 7, Table 26, valine substitution, read-out: Hemolysis RBC LD50

Compound	CC50 at 24 h (in vitro [1]; [3]) [µg/mL]	HC50 at 1 h (in vitro [2]; [4]) [µg/mL]	LD50 MCF7 (MCF7)	H1299 LD50 (H1299)	HeLaS3 LD50 (HeLaS3)	other results
VAKKFAKKFKKFAKKFAKFAFAF-NH2 [P503]	150	20	210 µg/mL			
FAKKLAKKLKKLAKKLIGAVLKV-OH [SHIVA 11 [(1-16)ME(2-9]-COOH]	34		95 µg/mL	54 µg/mL	180 µg/mL	WI38 LD50 (WI38): 34 µg/mL; LD50 SW480 (SW480): 120 µg/mL; PC3 LD50 (PC3): 28 µg/mL; LD50 BMKC (BMKC): 94 µg/mL
CC[C@H](C)[C@H](NC(=O)CN)C(=O)NCC(=O)N[C@@H](C)C(=O)N[C@H](C(=O)N[C@@H](CC(C)C)C(=O)N[C@@H](CCCCN)C(=O)N[C@H](C(=O)N[C@@H](CC(C)C)C(=O)N[C@H](C(=O)N[C@H](C(=O)NCC(=O)N[C@@H](CC(C)C)C(=O)N1CCC[C@H]1C(=O)N[C@@H](C)C(=O)N[C@@H](CC(C)C)C(=O)N[C@H](C(=O)N[C@@H](CO)C(=O)N[C@@H](Cc1c[nH]c2ccccc12)C(=O)N[C@H](C(=O)N[C@@H](CCCCN)C(=O)N[C@@H](CCCNC(=N)N)C(=O)N[C@@H](CCCCN)C(=O)N[C@@H](CCCNC(=N)N)C(=O)N[C@@H](CCC(N)=O)C(=O)N[C@@H](CCC(N)=O)C(N)=O)[C@@H](C)CC)[C@@H](C)CC)[C@@H](C)O)[C@@H](C)O)C(C)C)C(C)C [MELITTIIN]	16 (≈ 5.62 µM)		9 µg/mL	25 µg/mL	35 µg/mL	WI38 LD50 (WI38): 16 µg/mL; LD50 SW480 (SW480): 23 µg/mL; PC3 LD50 (PC3): 13 µg/mL; LD50 BMKC (BMKC): 18 µg/mL
VAKALKALLKALKAL-NH2 [FLAK 17 CV]	26		23 µg/mL			
FALALKALKKA-NH2 [Flak 96H]			> (> indicates greater than 1000)	> (> indicates greater than 1000)	> (> indicates greater than 1000)	WI38 LD50 (WI38): > (> indicates greater than 1000); LD50 WI38 (WI38; WI38 normal lung fibroblast line): > (> indicates greater than 1000); LD50 SW480 (SW480): > (> indicates greater than 1000); PC3 LD50 (PC3): > (> indicates greater than 1000); LD50 BMKC (BMKC): > (> indicates greater than 1000)
VAKFLAKFLKKAL-NH2 [FLAK50 Q1V]	64		92 µg/mL			
FAKKLAKKLKKLAKKLAK-NH2 [Shiva 10 (1-18) AM]		900		71 µg/mL	190 µg/mL	CC50 at 24 h (in vitro [1]; WI38 LD50, MTT, 24 hours with peptide, normal fibroblast line): 101 µg/mL; PC3 LD50 (PC3): 81 µg/mL
MPKWKVFKKIEKVGRNIRNGIVKAGPAIAVLGEAKALG-OH [SB37COOH]	130		175 µg/mL	220 µg/mL	150 µg/mL	WI38 LD50 (WI38): 130 µg/mL; LD50 SW480 (SW480): 82 µg/mL; LD50 BMKC (BMKC): 120 µg/mL
VALALKALKKL-NH2 [compound 180]						CC50 at 24 h (in vitro [1]; [5]): 1000 µg/mL; HC50 at 1 h (in vitro [2]; [6]): 850 µg/mL
VAKALKALLKALKAL-NH2 [P501, VAKALKALLKALKAL-NH2]		15				
VAKFLAKFLKKAL-NH2 [P502, VAKFLAKFLKKAL-NH2]		100				
VALALKALKKALKKLKKALKKAL-OH [compound 508]						CC50 at 24 h (in vitro [1]; [5]): 190 µg/mL; HC50 at 1 h (in vitro [2]; [6]): 70 µg/mL
KLAKKLAKLAKLAKAL-NH2 [P159, reference compound]	82		61 µg/mL	74 µg/mL	275 µg/mL	WI38 LD50 (WI38): 82 µg/mL; LD50 SW480 (SW480): 140 µg/mL; PC3 LD50 (PC3): 145 µg/mL; LD50 BMKC (BMKC): 140 µg/mL
VAKKLAKLAKKLLAL-NH2 [compound 505]						CC50 at 24 h (in vitro [1]; [5]): 85 µg/mL; HC50 at 1 h (in vitro [2]; [6]): 620 µg/mL
VAKLLAKALKKLL-NH2 [FLAK50D V]	75		45 µg/mL			
GIGKFLHSAKKFGKAFVGGIMNS-NH2 [P16, reference compound]		550				
VAKKLAKLAKKLLAL-NH2 [P505, VAKKLAKLAKKLLAL-NH2]		620				
